In publication PMC12169608, “Peptidomimetic Phenoxymethyl Ketone Warheads as Potent Dual-Mode Inhibitors against SARS-CoV‑2 M^pro and Cathepsin” (Journal of Medicinal Chemistry, 2025):
Values after ≈ are worked out from the molar mass of the structure shown.

Experiments:
[1] = molecular target: T1, human cathepsin L (hCTSL) (Homo sapiens, UniProt P07711); assay: hCTSL biochemical assay
T1 construct: purchased R&D Systems

[2] = molecular target: human cathepsin B (hCTSB) (Homo sapiens, UniProt P07858); assay: hCTSB biochemical assay
[3] = molecular target: mouse cathepsin L (mCTSL) (Mus musculus, UniProt P06797); assay: mCTSL biochemical assay; details: read-out: pIC50 (mouse CTSL) (converted)
Chain of mouse cathepsin L (mCTSL) (P06797 114-334): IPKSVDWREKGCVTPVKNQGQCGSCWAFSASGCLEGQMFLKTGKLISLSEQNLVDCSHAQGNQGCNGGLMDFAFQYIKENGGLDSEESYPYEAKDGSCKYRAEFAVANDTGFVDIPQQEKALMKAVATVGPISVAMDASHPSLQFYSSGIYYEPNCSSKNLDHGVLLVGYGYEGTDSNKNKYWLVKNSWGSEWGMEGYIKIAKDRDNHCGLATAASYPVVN

[4] = molecular target: mouse cathepsin B (mCTSB) (Mus musculus, UniProt P10605); assay: mCTSB biochemical assay; details: read-out: pIC50 (mouse CTSB) (converted)
Chain of mouse cathepsin B (mCTSB) (P10605 80-339): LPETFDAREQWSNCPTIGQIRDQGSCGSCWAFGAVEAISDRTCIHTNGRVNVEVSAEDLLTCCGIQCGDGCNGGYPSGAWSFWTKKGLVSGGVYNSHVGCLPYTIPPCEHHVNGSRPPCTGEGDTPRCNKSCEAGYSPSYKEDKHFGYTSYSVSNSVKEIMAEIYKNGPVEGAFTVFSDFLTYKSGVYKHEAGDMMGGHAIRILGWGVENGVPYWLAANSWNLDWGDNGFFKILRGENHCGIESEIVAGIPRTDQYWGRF

hamster CTSL = hamster CTSL (Mesocricetus auratus, UniProt Q812A7); assay: hamster CTSL biochemical assay
Chain of hamster CTSL (Q812A7 entry or part of it): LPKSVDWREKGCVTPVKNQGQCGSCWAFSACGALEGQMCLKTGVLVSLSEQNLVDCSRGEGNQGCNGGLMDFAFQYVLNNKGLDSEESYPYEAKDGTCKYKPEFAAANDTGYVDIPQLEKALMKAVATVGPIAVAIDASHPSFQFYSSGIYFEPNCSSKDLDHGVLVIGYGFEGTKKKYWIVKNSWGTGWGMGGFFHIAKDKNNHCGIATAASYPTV

SARS-CoV-2 = assay: microbe, parasite or virus in culture; assay type: cell-based; details: Severe acute respiratory syndrome coronavirus 2, Vero C1008, read-out: SARS-CoV-2 CPE reduction assay pEC50 (converted)
thrombin = molecular target: T2, thrombin (Homo sapiens, UniProt P00734); assay: Protease panel: thrombin; assay type: biochemical
T2 construct: preincubated with thrombin (10 nM, Sigma); purchased Sigma-Aldrich

[5] = 3 h, 2 µM
in vitro [6] = details: African green monkey
physchem [7] = details: pH 7.4
physchem [8] = details: pH 7.4; remark: listed apart in the source
in vitro [9] = details: mouse, plasma, mouse plasma protein binding
in vitro [10] = details: mouse, hepatocytes
in vitro [11] = details: hamster, hepatocytes; for hepatocyte CLint at 2 h, 4 µM: CLint (hamster hepatocytes + ritonavir 4:1); for hepatocyte CLint at 2 h, 2 µM: CLint (hamster hepatocytes); for half-life at 2 h, 4 µM: t1/2 (hamster hepatocytes + ritonavir 4:1)
in vitro [12] = details: hamster, microsomes, pH 7.4
trypsin = assay: Protease panel: trypsin
[13] = Mouse hepatocyte stability; details: mouse, cryopreserved hepatocytes
[14] = Hamster hepatocyte stability; details: cryopreserved hepatocytes, t1/2 (hamster hepatocytes), without ritonavir
[15] = Hamster liver microsomal stability; details: microsomes, pH 7.4
SARS-CoV-2 M^pro = SARS-CoV-2 M^pro (Severe acute respiratory syndrome coronavirus 2, UniProt P0DTD1); assay: biochemical; assay type: biochemical; details: read-out: M^pro biochemical assay pIC50 (converted)
[16] = tested on: luciferase-expressing VSV (ΔG) pseudotyped with Spike from SARS-CoV-2; assay: microbe, parasite or virus in culture; assay type: cell-based; details: Vesicular stomatitis virus, Vero C1008, read-out: Entry reporter assay pEC50 (converted)
in vitro [17] = details: mouse, microsomes, pH 7.4
[18] = Mouse liver microsomal stability; details: microsomes, pH 7.4
[19] = % remaining at 120 min (hamster hepatocytes, compound/ritonavir 1:1)
[20] = % remaining at 120 min (hamster hepatocytes, compound/ritonavir 2:1)
[21] = CLint (hamster hepatocytes, compound/ritonavir 1:1)
[22] = CLint (hamster hepatocytes, compound/ritonavir 2:1)
[23] = t1/2 (hamster hepatocytes, compound/ritonavir 1:1)
[24] = t1/2 (hamster hepatocytes, compound/ritonavir 2:1)

T1 sequence (P07711 114-333): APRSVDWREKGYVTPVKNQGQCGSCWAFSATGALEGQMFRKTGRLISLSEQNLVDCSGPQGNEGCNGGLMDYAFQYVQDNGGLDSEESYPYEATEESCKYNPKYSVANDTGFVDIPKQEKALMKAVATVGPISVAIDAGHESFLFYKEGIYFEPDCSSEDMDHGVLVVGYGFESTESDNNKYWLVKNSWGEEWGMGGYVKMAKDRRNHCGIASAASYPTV

| SMILES | hCTSL biochemical assay pIC50 [1] | hCTSB biochemical assay pIC50 [2] | IC50 [3] [µM] | EC50 (SARS-CoV-2) [µM] | mouse plasma protein binding, fraction bound (Fb) [5] [%] | CC50 (in vitro [6]) [µM] | logD at 1 h (physchem [7]) | solubility kinetic at 24 h (physchem [8]) [µM] | fraction unbound at 3 h, 2 µM (in vitro [9]; fraction bound (Fb)) | fraction unbound at 3 h, 2 µM (in vitro [9]; fraction unbound (Fu)) | remaining at 2 h, 1 µM (in vitro [11]; [19]) [%] | remaining at 2 h, 1 µM (in vitro [11]; [20]) [%] | hepatocyte CLint at 2 h, 4 µM (in vitro [11]) [µL/min/1e6 cells] | hepatocyte CLint at 2 h, 2 µM (in vitro [11]) [µL/min/1e6 cells] | hepatocyte CLint at 1 µM (in vitro [11]; [21]) [µL/min/1e6 cells] | hepatocyte CLint at 1 µM (in vitro [11]; [22]) [µL/min/1e6 cells] | half-life at 2 h, 4 µM (in vitro [11]) [min] | half-life at 1 µM (in vitro [11]; [23]) [min] | half-life at 1 µM (in vitro [11]; [24]) [min] | microsomal CLint at 1 µM (in vitro [12]) [µL/min/mg] | also measured |
| --- | --- | --- | --- | --- | --- | --- | --- | --- | --- | --- | --- | --- | --- | --- | --- | --- | --- | --- | --- | --- | --- |
| CC(C)(C)[C@H](NC(=O)C(F)(F)F)C(=O)N1C[C@H]2[C@@H]([C@H]1C(=O)N[C@@H](C[C@@H]1CCNC1=O)C(=O)COc1c(F)c(F)c(CO)c(F)c1F)C2(C)C [compound 7, (1R,2S,5S)-3-((S)-3,3-Dimethyl-2-(2,2,2-trifluoroacetamido)butanoyl)-6,6-dimethyl-N-((S)-3-oxo-1-((S)-2-oxopyrrolidin-3-yl)-4-(2,3,5,6-tetrafluoro-4-(hydroxymethyl)phenoxy)butan-2-yl)-3-azabicyclo[3.1.0]hexane-2-carboxamide] | < 4.30 | 4.82 | 35.5 | 0.0501 | 96.45 | > 0.501 | 2.82 | 71.3 (≈ 50.7 µg/mL) | 0.0355 | 0.0355 | 20.8 | 3.47 | 41.9 | 50.2 | 12.5 | 27.4 | 16.6 | 55.5 | 25.3 | 803 | hCTSL activity (in words) ([1]; biochemical assay): no hCTSL and hCTSB activity was observed; hCTSB activity (in words) ([2]; biochemical assay): no hCTSL and hCTSB activity was observed; IC50 [4]: 1.86 µM; pIC50 (hamster CTSL) (hamster CTSL): 5.07 ± 0.10; inhibition at 10 µM (thrombin): 0.4 ± 0.9%; hepatocyte CLint at 1 µM (in vitro [10]; CLint (mouse hepatocytes + ritonavir 4:1)): 21.8 µL/min/1e6 cells; hepatocyte CLint at 1 µM (in vitro [10]; CLint (mouse hepatocytes)): 121 µL/min/1e6 cells; remaining at 1 h, 1 µM (in vitro [12]): 0.15%; Trypsin inhibition at 10 μM (trypsin): 9.9 ± 6.6%; half-life at 1 µM [13]: 14.3 min; half-life at 2 h, 2 µM [14]: 13.8 min; half-life at 1 µM [15]: 1.73 min |
| COc1cccc2[nH]c(C(=O)N[C@@H](Cc3cccc(F)c3)C(=O)N[C@@H](C[C@@H]3CCNC3=O)C(=O)COc3c(F)c(F)c(C(C)(C)O)c(F)c3F)cc12 [compound 10, N-((S)-3-(3-Fluorophenyl)-1-oxo-1-(((S)-3-oxo-1-((S)-2-oxopyrrolidin-3-yl)-4-(2,3,5,6-tetrafluoro-4-(2-hydroxypropan-2-yl)phenoxy)butan-2-yl)amino)propan-2-yl)-4-methoxy-1H-indole-2-carboxamide] | 6.95 | 5.94 | 0.933 | 0.12 | 98.95 | > 1.26 | 3.15 | 3.65 (≈ 2.67 µg/mL) | 0.0105 | 0.0105 | 11.6 | 2.17 | 19.4 | 27.5 | 16.4 | 30.7 | 35.7 | 42.2 | 22.6 | 500 | IC50 (SARS-CoV-2 M^pro): 0.00708 µM; EC50 [16]: 2.04 µM; hepatocyte CLint at 2 h, 2 µM (in vitro [10]; CLint (mouse hepatocytes)): 47.6 µL/min/1e6 cells; microsomal CLint at 1 µM (in vitro [17]): 780 µL/min/mg; remaining at 1 h, 1 µM (in vitro [17]): 0%; remaining at 1 h, 1 µM (in vitro [12]): 0%; half-life at 1 µM [13]: 36.4 min; half-life at 2 h, 2 µM [14]: 25.2 min; half-life at 1 µM [18]: 1.9 min; half-life at 1 µM [15]: 2.77 min |
